# What was measured:
# [1] = system: Leucine tRNA synthetase (hair follicle extract); assay: Hair follicle aminoacyl-tRNA synthetase inhibition, 14C leucine incorporation; assay type: biochemical; details: 0.96 μmole/ml inhibitor (leucinamide: similar concentration); 37° C., 60 minutes
# Description: Inhibition of hair follicle aminoacyl-tRNA synthetase was determined using a modification of the procedure described by Hampel et. al (Aminoacyl-tRNASynthetases from Cultured CHO Cells (1979) Methods in Enzymology, Vol. LIX, pp 229-234). A reaction mixture containing the following was used for each assay: 50 mM Tris (pH 7.4), 15 mM MgCl2, 0.5 mM EDTA (adjusted to pH 7), 5 mM ATP (adjusted to pH 7, 0.35 mM CTP, 20 μM ^14 C amino acid and tRNA (50 μg/ml). Leucine and serine tRNA synthetase were assayed with a pH 8.6 buffer and a MgCl2 concentration of 8 mM. The reaction mixture is mixed with the hair follicle extract so that the final assay volume is 100 μl. Typically, 90-95 μl of the reaction mixture was mixed with 5-10 μl of the hair follicles extract. The reaction was carried out at 37° C. for 60 minutes. The reaction was terminated by removing the reaction mixture and placing it on a piece of filter paper that had been soaked with 10% trichloroacetic acid. The filter paper was washed 3 times in 10% trichloroacetic acid and 3 times in 5% trichloroacetic acid. The filter paper was dried and the insoluble radioactivity, corresponding to the ^14 C-aminoacyl-tRNA, was counted in a scintillation counter.
# The incorporation of the ^14 C amino acid varied from 178 dpm/mM to 3,093 dpm/mM in the assays of the amino acids mentioned above. […]
# flank organ hair growth = assay: Golden Syrian hamster assay (flank organ hair mass after thirteen topical applications); assay type: in vivo
# Text: Male intact Golden Syrian hamsters are considered acceptable models for human beard hair growth in that they display oval shaped flank organs, one on each side, each about 8 mm. in major diameter, which grow thick black and coarse hair similar to human beard hair. These organs produce hair in response to androgens in the hamster. To evaluate the effectiveness of a composition including an aminoacyl-tRNA synthetase inhibitor, the flank organs of each of a group of hamsters are shaved. To one organ of each animal 10 μl. of vehicle alone once a day is applied, while to the other organ of each animal an equal amount of vehicle containing a aminoacyl-tRNA inhibitor is applied. After thirteen applications (one application per day for five days a week), the flank organs are shaved and the amount of recovered hair (hair mass) from each is weighed. Percent-reduction of hair growth is calculated by subtracting the hair mass (mg) value of the test compound treated side from the hair mass value of the vehicle treated side; the delta value obtained is then divided by the hair mass value of the vehicle treated side, and the resultant number is multiplied by 100.
# The above-described assay will be referred to herein as the "Golden Syrian hamster" assay. Preferred compositions provide a reduction in hair growth of at least about 25%, more preferably at least about 50%, and most preferably at least about 60% when tested in the Golden Syrian hamster assay.
# [2] = Table 2 dose response, dose 1%, pH 5.5, vehicle 90% H2O, 6% dipropylene glycol, 4% ethanol
# [3] = Table 2 dose response, dose 5%, pH 6.5, vehicle 90% H2O, 6% dipropylene glycol, 4% ethanol
# [4] = Table 2 dose response, dose 7.5%, pH 6.5, vehicle 90% H2O, 6% dipropylene glycol, 4% ethanol
# [5] = Table 1, dose 15%, vehicle B, pH 6.5
smiles,measurement,setting,value
CC(C)C[C@H](N)CO [L-leucinol],inhibition of leucine incorporation,[1],18%
N[C@@H](CSC(c1ccccc1)(c1ccccc1)c1ccccc1)C(=O)O [S-trityl-L-cysteine],% Inhibition of hair growth,flank organ hair growth; [2],35 ± 9%
same,Treated (mg) hair mass,flank organ hair growth; [2],0.88 ± .10 mg
same,% Inhibition of hair growth,flank organ hair growth; [3],56 ± 6%
same,Treated (mg) hair mass,flank organ hair growth; [3],0.90 ± .17 mg
same,% Inhibition of hair growth,flank organ hair growth; [4],80 ± 6%
same,Treated (mg) hair mass,flank organ hair growth; [4],0.35 ± .10 mg
same,Dose response of hair growth reduction,flank organ hair growth; increasing the concentration of the inhibitor in the composition,increased hair growth reduction
CSCCC(C)(N)C(=O)O (racemic) [α-methyl-DL-methionine],% Inhibition of hair growth,flank organ hair growth; [5],31 ± 7%
same,Treated (mg) hair mass,flank organ hair growth; [5],1.10 ± .15 mg
CC(C)CC(N)C(N)=O (centres unmarked) [lucinamide],inhibition of leucine incorporation,[1],83%
